Results on 3 compounds are retold here after patent US10254278B2, “Method and system for detection of natural high intensity sweeteners that contain hydroxyl groups” (PureCircle Sdn Bhd, priority 2011, dated 2019).

The subject of the test is antiserum KLH-R3 (I) (polyclonal anti-Rebaudioside D antibody). The test is described as follows: Competitive indirect ELISA for Rebaudioside D (conjugate-coated format, antiserum KLH-R3 (I) / BSA-R3 coating conjugate). Type of test: binding, rabbit. Particulars: for cross-reactivity CR = (IC50 Rebaudioside D/IC50 compound)×100: developed immunoassay for Reb D. The method, then: The hapten R1 (rebaudioside D) (5 mg suspended in 0.5 mL of 10 mM PBS) and KLH-conjugates or BSA-R (n=2-5), (0.5 mL of conjugate at a concentration of […], 10 mM PBS) were injected intramuscularly into two New Zealand California white rabbits, with 0.5 mL of complete Freund's adjuvant in the first immunization, and 0.5 mL of incomplete Freund's adjuvant in the following. Immunizations were performed every 21 days, and 10 days after each immunization bleedings were carried out to know the title and properties of serum from each animal. After five cycles of immunization, blood was obtained by bleeding, leaving it to coagulate overnight at 4° C. Subsequently, after adding sodium azide (0.02%) serum was separated by centrifugation and stored at −80° C.
First, the avidity of the sera obtained against different coating conjugates was determined by non-competitive indirect ELISA using different antisera (serial dilutions from 1/1000 to 1/64000) and concentrations of the coating conjugates (0.001 to 1.0 mg/L). Similarly, the avidity to the enzyme-tracer was determined by a direct non-competitive ELISA using several dilutions of the tracer (serial dilutions from 0.001 to 1.0 mg/L) and serum (from 1/500 to 1/512000).
The titres obtained from conjugate-coated format indirect format (ELISA plates coated with protein-hapten) were higher than those obtained for direct format (ELISA plates coated with serum), choosing as optimal concentrations of coating conjugates and dilution of serum, those that produced absorbance values around 0.8-1.2 units in absence of analyte (Rebaudioside D), to carry out competitive tests.
Flat-bottomed polystyrene ELISA plates were coated overnight at 4° C. with 100 μL/well of the appropriate coating conjugate solution in CB. The following day, plates were washed six times with 15 mmol/L PBS-T pH 8.5, and then 50 μL of the serum dilution and 50 μL of Reb D in PBS-T were added and incubated at room temperature during 1 h. After washing, an incubation step (1 h) with 100 μL/well GAR-HRP (diluted 1/2000 in PBS-T) was accomplished, and plates washed again. Finally, 100 μL/well of substrate solution (2 mg/mL OPD and 0.012% H2O2 in 25 mmol/L sodium citrate and 62 mmol/L sodium phosphate, pH 5.5) was added. The enzymatic reaction was stopped after 10 min by addition of 2.5 mol/L H2SO4 (50 μL/well), and the absorbance was read in a dual-wavelength mode (490, 650 nm).
The optimization was performed for the most sensitive assay (antiserum KLH-R3/BSA-R3 coating conjugate) using Reb D as competitor analyte.
The influence of several experimental parameters such as ionic strength, pH, surfactant concentration and time of competition on assay characteristics was examined in order to improve the immunoassay performance (sensitivity, maximum absorbance, working or dynamic range and detection limit). Criteria used to evaluate the assay performances were sensitivity (IC50), maximum absorbance (A0), dynamic range (DR, established between the Reb D concentrations producing 20% and 80% colour inhibition) and limit of detection (LD, estimated at 10% inhibitory concentration).
Assay selectivity was evaluated by determining the cross-reactivity with two sugars derived from Stevia rebaudiana, such as rebaudioside A and stevioside. The cross reactivity values were calculated according to the following equation: CR=(IC50 [mg/L] Rebaudioside D/IC50 [mg/L] compound)×100.

Setting [1] is: cross-reactivity study, related compound as competitor.

Values after ≈ are worked out from the molar mass of the structure shown.

As a reminder, the IC50 is the concentration that inhibits the measured activity by half. Take `C=C1C[C@@]23CC[C@H]4[C@@](C)(CCC[C@@]4(C)C(=O)O[C@@H]4O[C@H](CO)[C@@H](O)[C@H](O)[C@H]4O)[C@@H]2CC[C@]1(O[C@@H]1O[C@H](CO)[C@@H](O)[C@H](O[C@@H]2O[C@H](CO)[C@@H](O)[C@H](O)[C@H]2O)[C@H]1O[C@@H]1O[C@H](CO)[C@@H](O)[C@H](O)[C@H]1O)C3` [Rebaudioside A]: the “cross-reactivity CR = (IC50 Rebaudioside D/IC50 compound)×100” value worked out at 0.16%. The compound also returned a concentration for half-maximal inhibition (IC50) under setting [1] of 225 µg/L (≈ 233 nM).
For the compound `C=C1C[C@@]23CC[C@H]4[C@@](C)(CCC[C@@]4(C)C(=O)O[C@@H]4O[C@H](CO)[C@@H](O)[C@H](O)[C@H]4O[C@@H]4O[C@H](CO)[C@@H](O)[C@H](O)[C@H]4O)[C@@H]2CC[C@]1(O[C@@H]1O[C@H](CO)[C@@H](O)[C@H](O[C@@H]2O[C@H](CO)[C@@H](O)[C@H](O)[C@H]2O)[C@H]1O[C@@H]1O[C@H](CO)[C@@H](O)[C@H](O)[C@H]1O)C3` [Rebaudioside D], the IC50 runs as follows: (PBS 5 mmol/L, 0.05% Tween 20, pH 7.5) 1.53 ± 0.41 µg/L (≈ 1.35 nM); (PBS 10 mmol/L, 0.05% Tween 20, pH 7.5) 1.30 ± 0.35 µg/L (≈ 1.15 nM); (PBS 15 mmol/L, 0.05% Tween 20, pH 7.5) 0.77 ± 0.24 µg/L (≈ 0.682 nM); (PBS 20 mmol/L, 0.05% Tween 20, pH 7.5) 1.02 ± 0.28 µg/L (≈ 0.903 nM); (PBS 30 mmol/L, 0.05% Tween 20, pH 7.5) 1.70 ± 0.45 µg/L (≈ 1.51 nM); (Tween 20 0.000%, 15 mM PBS, pH 8.5) 0.68 ± 0.26 µg/L (≈ 0.602 nM). Moreover, the IC50 reads like this: (Tween 20 0.010%, 15 mM PBS, pH 8.5) 0.56 ± 0.23 µg/L (≈ 0.496 nM); (Tween 20 0.025%, 15 mM PBS, pH 8.5) 0.58 ± 0.19 µg/L (≈ 0.514 nM); (Tween 20 0.050%, 15 mM PBS, pH 8.5) 0.49 ± 0.15 µg/L (≈ 0.434 nM); (Tween 20 0.100%, 15 mM PBS, pH 8.5) 0.39 ± 0.08 µg/L (≈ 0.345 nM); (optimal conditions (15 mM PBS, pH 8.5, 0.25% Tween 20), set of 20 calibration curves) 0.36 ± 0.05 µg/L (≈ 0.319 nM); (pH 4.5, 15 mM PBS, 0.05% Tween 20) 0.63 ± 0.21 µg/L (≈ 0.558 nM). Further, the IC50 by setting is: (pH 5.5, 15 mM PBS, 0.05% Tween 20) 0.86 ± 0.23 µg/L (≈ 0.762 nM); (pH 6.5, 15 mM PBS, 0.05% Tween 20) 0.91 ± 0.27 µg/L (≈ 0.806 nM); (pH 7.5, 15 mM PBS, 0.05% Tween 20) 0.77 ± 0.24 µg/L (≈ 0.682 nM); (pH 8.5, 15 mM PBS, 0.05% Tween 20) 0.49 ± 0.15 µg/L (≈ 0.434 nM); (pH 9.5, 15 mM PBS, 0.05% Tween 20) 0.50 ± 0.19 µg/L (≈ 0.443 nM); (serum screening, before optimization, pair KLH-R3 (I)/BSA-R3 (1:2000/0.03 mg/L)) 1.30 µg/L (≈ 1.15 nM). The “detection limit (LD, estimated at 10% inhibitory concentration)” value (optimal conditions, 20 calibration curves) is 0.01 µg/L.
For `C=C1C[C@@]23CC[C@H]4[C@@](C)(CCC[C@@]4(C)C(=O)O[C@@H]4O[C@H](CO)[C@@H](O)[C@H](O)[C@H]4O)[C@@H]2CC[C@]1(O[C@@H]1O[C@H](CO)[C@@H](O)[C@H](O)[C@H]1O[C@@H]1O[C@H](CO)[C@@H](O)[C@H](O)[C@H]1O)C3` [Stevioside], the “cross-reactivity CR = (IC50 Rebaudioside D/IC50 compound)×100” value is given as 8.6×10^−5%. In addition, under setting [1], the concentration for half-maximal inhibition (IC50) is 418,605 μg/L.
